The values that follow come from patent US11793792B2, “Composition for prevention and treatment of hair growth disorders” (GIULIANI S.P.A., priority 2018, dated 2023).

For test [1], the system named is Lef1. Put plainly: LEF1 mRNA expression (RT-PCR) in Human Follicle Dermal Papilla Cells (HFDPC). It counts as cell-based. The conditions noted are these: 24 h incubation; for Lef1 fold of change mRNA expression: normalized to GAPDH, relative to untreated calibrator (vehicle = 1). The text has this: In the present test, Hair cell line (derma papilla cells) were used rather than human hair follicle, as in the experiment of Example 4.
We evaluated the stimulation of Lef1 (marker of hair growth) and we retested compound 1 and compound 5 and we use also included the compound WAY-316660, a relatively non-toxic specific antagonist of SFRP1, which has already been used for the treatment of osteoporosis, for its known hair growth promotion activity (Rif. Hawkshaw et al. Plos Biol, 2018; https://journals.plos.org/plosbiology/article?id=10.1371/journal.pbio.2003705).
Biological Model Human Follicle Dermal Papilla Cells (HFDPC)
The cell line was cultured in Follicle Dermal Papilla Cell medium in 25 cm^2 culture flasks at 37° C., 5% CO2. Every two days confluent cultures were splitted 1:3-1:6, after washing with PBS 1× (without Ca2+ and Mg2+), using Trypsin/EDTA and seed at 2-5·10^4 cell/cm^2, 37° C., 5% CO2.
The expression of LEF1 was investigated by RT-PCR. The analysis was performed according to the reported method (Gibson et al, 1996; Heid et al, 1996) using TaqMan Gene Expression Assay supplied by Applied Biosystems. Briefly, within a gene-specific PCR oligonucleotide primer pair, an oligonucleotide probe labelled with a reporter fluorescent dye (FAM) at the 50-end and a quencher fluorescent dye (TAMURA) at the 30-end was designed. When the probe was intact, the reporter dye emission was quenched. During the extension phase of the PCR cycle, the nucleolytic activity of the DNA polymerase cleaved the hybridization probe and released the reporter dye from the probe. Fluorescence intensity produced during PCR amplifications was monitored by a sequence detector directly in the reaction tube (“real time”). A computer algorithm compared the amount of reporter dye emission with the quenching dye emission and calculated the threshold cycle number (CT) when signals reached ten times the standard deviation of the baseline, from which the levels of the mRNAs transcribed from the various genes tested were obtained (Gibson et al, 1996).
Gene expression analysis involves four following step: • 1. Treatments of cells with active compounds for 24 h; • 2. RNA extraction; • 3. cDNA retro transcription; • 4. Quantitative RT-PCR; Day 1: Seed cells
When the cells (Human Follicle Dermal Papilla Cells) reached approximately 80% confluence, they were harvested with trypsin/EDTA and seeded at a density of 1×10^6 cells/ml into 12-well plates and then incubated at 37° C., 5% CO2 (24 h).
When the cells reached approximately 80% confluence, complete medium was removed; cells were washed once with PBS 1× and the incubated in Human Follicle Dermal Papilla Cells at 37° C., 5% CO2 for at least 24 h;
Compounds to be tested (WAY316606, 1, 5, 7, 17, 18, 20, 21, 24) were dissolved in DMSO and diluted at final concentration in Human Follicle Dermal Papilla Cells.
Cells were then incubated at 37° C., 5% CO2 for different 24 h.
Total RNAs were extracted from the cells using Tri Reagent (Thermo Fisher), that is a single, homogenous solution for the isolation of total RNA. This procedure is an improvement of the single-step method reported by (Chomczynski and Mackey, 1995) for total RNA isolation. Tri Reagent, a mixture of guanidine thiocyanate and phenol in a monophase solution, effectively dissolves DNA, RNA, and protein on homogenization or lysis of tissue sample and contains a unique combination of denaturants and RNase inhibitors and is used in a convenient, single-step disruption/separation procedure.
Total RNA, extracted and quantified, was amplified using the “PRIME SCRIPT RT reagent kit (Perfect Real time) (Takara).
For amplification we used the Real time PCR System Mx3000P (Stratagene) and each total RNA was amplified in duplicate.
The RT-PCR analysis was set, using TaqMan linear probes (Applied Biosystems). Those probes are the most widely used and published detection chemistry for qPCR applications. […]

Test [2] relates to Lef1. Put plainly: Lef1 gene expression (qRT-PCR) in human hair follicle organ culture. It counts as cell-based. The conditions noted are these: microdissected human anagen VI scalp hair follicles; 15 μM; treated 6 hours; normalized on GAPDH; vehicle = 1; N=8 HFs/group from 1 donor. As to the method:
Evidence of the activity of compounds of the invention is provided by the expression of Lymphoid enhancer binding factor-1 (Lef1), which plays an important role in bulge stem cells cell growth and differentiation (International Journal of Medical Sciences 2013; 10 (6):738-746).
These products were reconstituted in DMSO (stock solution) and intermediate or working solutions were prepared diluting the stock or the intermediate solution in William's E medium. […]
RNA was extracted from hair follicles with RNeasy kit (Qiagen, USA), and reverse transcribed with Tetro cDNA synthesis kit (Bioline) according to manufacturer's instructions. qPCR was performed in QuantStudio3 (Thermo Fisher) with Taqman probe for Axin2 (Hs00610344_m1, Thermo Fisher), Lef1 (Hs01547250_m1, Thermo Fisher), b-actin (Hs01060665_g1, Life Technologies) and Gapdh (Hs02758991_g1, Thermo Fisher). Expression levels were calculated with the delta-delta CT method. […]
Background: Real-time PCR tracks product formation cycle by cycle.

Each structure is given as a SMILES string.

On to `CCOC(=O)c1c(NC(=O)CC2SC(=N)NC2=O)sc(Br)c1C` (centres unmarked) [Compound C7], for which, in the test with Lef1 [1], the “effect on LEF1 mRNA expression / activity (in words)” value is “more active” and the “Lef1 fold of change mRNA expression” value worked out at 2.46. On to `COC(=O)c1cc(-c2ccccc2)sc1NC(=O)CC1SC(=N)NC1=O` (centres unmarked) [Compound C18], for which, in the test on Lef1 [1], the “Lef1 fold of change mRNA expression” value is listed as 1.56. Still for that read-out and setting: for `N=C1NC(=O)C(CC(=O)Nc2scc(C3CCC3)c2C(N)=O)S1` (centres unmarked) [Compound C24] the value was 1.88. In the case of `CCOC(=O)c1c(NC(=O)CC2SC(=N)NC2=O)sc(C)c1C` (centres unmarked) [Compound C5, 2-(2-(2-Imino-4-oxo-thiazolidin-5-yl)-acetylamino)-4,5-dimethyl-thiophene-3-carboxylic acid ethyl ester], in the test with Lef1 [1], the “effect on LEF1 mRNA expression / activity (in words)” value is listed as “more active” and the “Lef1 fold of change mRNA expression” value is 6.05. In addition, the “effect on LEF1 mRNA expression / activity (in words)” value in the test on Lef1 [1] (listed as 5) is “major induction of Lef1”. For the same compound, the “genic expression of Lef1 (mRNA), mean” value in the test with Lef1 [2] is on record as 6.134. On to `CCOC(=O)c1c(NC(=O)CC2SC(=N)NC2=O)sc(C)c1-c1ccccc1` (centres unmarked) [Compound C20], for which, in the test with Lef1 [1], the “Lef1 fold of change mRNA expression” value is reported as 1.39. On to `COC(=O)c1c(NC(=O)CC2SC(=N)NC2=O)sc(C)c1C` (centres unmarked) [Compound C1, 2-(2-(2-Imino-4-oxo-thiazolidin-5-yl)-acetylamino)-4,5-dimethyl-thiophene-3-carboxylic acid methyl ester], for which, in the test on Lef1 [1], the “effect on LEF1 mRNA expression / activity (in words)” value is on record as “more active” and the “Lef1 fold of change mRNA expression” value turned out to be 8.43. Besides, the “effect on LEF1 mRNA expression / activity (in words)” value in the test on Lef1 [1] (listed as 1) is “major induction of Lef1”. For the same compound, the “genic expression of Lef1 (mRNA), mean” value in the test on Lef1 [2] worked out at 3.425.

On to `COC(=O)c1ccsc1NC(=O)CC1SC(=N)NC1=O` (centres unmarked) [Compound C17], for which, in the test on Lef1 [1], the “effect on LEF1 mRNA expression / activity (in words)” value was “more active” and the “Lef1 fold of change mRNA expression” value worked out at 2.52. Regarding `CCOC(=O)c1c(C2CC2)csc1NC(=O)CC1SC(=N)NC1=O` (centres unmarked) [Compound C21], the “Lef1 fold of change mRNA expression” value in the test on Lef1 [1] stood at 1.79.

Consider `O=S(=O)(NC1CCNCC1)c1cc(S(=O)(=O)c2ccccc2)ccc1C(F)(F)F` [WAY-316606, reference compound], for which the “Lef1 fold of change mRNA expression” value with Lef1 [1] came out at 2.18.
